Test results as given in PMC10099431 (ACS Omega, 2023).
Read-outs that look alike come from different tables or passages of the source.

What was measured:
[1] = type: physicochemical; settings: 298.15 K; for 100 δx1,3 (preferential solvation parameter of RST by PEG400) / D (derivative of the Gibbs energy of transfer) / G1,3 (Kirkwood–Buff integral, PEG400–RST) / G2,3 (Kirkwood–Buff integral, water–RST) / Vcor (correlation volume): 0.1 MPa
[2] = cited from earlier work
[3] = cited from earlier work; remark: listed apart in the source

100 δx1,3 (preferential solvation parameter of RST by PEG400) ([1]; x1 = 0.45): 1.64
D (derivative of the Gibbs energy of transfer) ([1]; x1 = 0.45): –5.48 kJ·mol^–1
G1,3 (Kirkwood–Buff integral, PEG400–RST) ([1]; x1 = 0.45): –325.4 cm^3·mol^–1
G2,3 (Kirkwood–Buff integral, water–RST) ([1]; x1 = 0.45): –568.4 cm^3·mol^–1
Vcor (correlation volume) ([1]; x1 = 0.45): 4133 cm^3·mol^–1
δx1,3, highest preferential solvation parameter of RST by PEG400 ([1]; x1 = 0.5): 1.65 × 10^–2
100 δx1,3 (preferential solvation parameter of RST by PEG400) ([1]; x1 = 0.50): 1.65
D (derivative of the Gibbs energy of transfer) ([1]; x1 = 0.50): –4.88 kJ·mol^–1
G1,3 (Kirkwood–Buff integral, PEG400–RST) ([1]; x1 = 0.50): –323.8 cm^3·mol^–1
G2,3 (Kirkwood–Buff integral, water–RST) ([1]; x1 = 0.50): –584.0 cm^3·mol^–1
Vcor (correlation volume) ([1]; x1 = 0.50): 4396 cm^3·mol^–1
100 δx1,3 (preferential solvation parameter of RST by PEG400) ([1]; x1 = 0.55): 1.64
D (derivative of the Gibbs energy of transfer) ([1]; x1 = 0.55): –4.36 kJ·mol^–1
G1,3 (Kirkwood–Buff integral, PEG400–RST) ([1]; x1 = 0.55): –322.8 cm^3·mol^–1
G2,3 (Kirkwood–Buff integral, water–RST) ([1]; x1 = 0.55): –601.8 cm^3·mol^–1
Vcor (correlation volume) ([1]; x1 = 0.55): 4652 cm^3·mol^–1
100 δx1,3 (preferential solvation parameter of RST by PEG400) ([1]; x1 = 0.60): 1.61
D (derivative of the Gibbs energy of transfer) ([1]; x1 = 0.60): –3.92 kJ·mol^–1
G1,3 (Kirkwood–Buff integral, PEG400–RST) ([1]; x1 = 0.60): –322.0 cm^3·mol^–1
G2,3 (Kirkwood–Buff integral, water–RST) ([1]; x1 = 0.60): –621.8 cm^3·mol^–1
Vcor (correlation volume) ([1]; x1 = 0.60): 4901 cm^3·mol^–1
100 δx1,3 (preferential solvation parameter of RST by PEG400) ([1]; x1 = 0.65): 1.55
D (derivative of the Gibbs energy of transfer) ([1]; x1 = 0.65): –3.54 kJ·mol^–1
G1,3 (Kirkwood–Buff integral, PEG400–RST) ([1]; x1 = 0.65): –321.5 cm^3·mol^–1
G2,3 (Kirkwood–Buff integral, water–RST) ([1]; x1 = 0.65): –643.4 cm^3·mol^–1
Vcor (correlation volume) ([1]; x1 = 0.65): 5144 cm^3·mol^–1
100 δx1,3 (preferential solvation parameter of RST by PEG400) ([1]; x1 = 0.70): 1.46
D (derivative of the Gibbs energy of transfer) ([1]; x1 = 0.70): –3.21 kJ·mol^–1
G1,3 (Kirkwood–Buff integral, PEG400–RST) ([1]; x1 = 0.70): –321.0 cm^3·mol^–1
G2,3 (Kirkwood–Buff integral, water–RST) ([1]; x1 = 0.70): –664.5 cm^3·mol^–1
Vcor (correlation volume) ([1]; x1 = 0.70): 5379 cm^3·mol^–1
100 δx1,3 (preferential solvation parameter of RST by PEG400) ([1]; x1 = 0.75): 1.31
D (derivative of the Gibbs energy of transfer) ([1]; x1 = 0.75): –2.92 kJ·mol^–1
G1,3 (Kirkwood–Buff integral, PEG400–RST) ([1]; x1 = 0.75): –320.4 cm^3·mol^–1
G2,3 (Kirkwood–Buff integral, water–RST) ([1]; x1 = 0.75): –682.1 cm^3·mol^–1
Vcor (correlation volume) ([1]; x1 = 0.75): 5607 cm^3·mol^–1
100 δx1,3 (preferential solvation parameter of RST by PEG400) ([1]; x1 = 0.80): 1.09
D (derivative of the Gibbs energy of transfer) ([1]; x1 = 0.80): –2.67 kJ·mol^–1
G1,3 (Kirkwood–Buff integral, PEG400–RST) ([1]; x1 = 0.80): –319.6 cm^3·mol^–1
G2,3 (Kirkwood–Buff integral, water–RST) ([1]; x1 = 0.80): –691.4 cm^3·mol^–1
Vcor (correlation volume) ([1]; x1 = 0.80): 5827 cm^3·mol^–1
100 δx1,3 (preferential solvation parameter of RST by PEG400) ([1]; x1 = 0.85): 0.83
D (derivative of the Gibbs energy of transfer) ([1]; x1 = 0.85): –2.45 kJ·mol^–1
G1,3 (Kirkwood–Buff integral, PEG400–RST) ([1]; x1 = 0.85): –318.5 cm^3·mol^–1
G2,3 (Kirkwood–Buff integral, water–RST) ([1]; x1 = 0.85): –687.6 cm^3·mol^–1
Vcor (correlation volume) ([1]; x1 = 0.85): 6039 cm^3·mol^–1
100 δx1,3 (preferential solvation parameter of RST by PEG400) ([1]; x1 = 0.90): 0.54
D (derivative of the Gibbs energy of transfer) ([1]; x1 = 0.90): –2.26 kJ·mol^–1
G1,3 (Kirkwood–Buff integral, PEG400–RST) ([1]; x1 = 0.90): –317.0 cm^3·mol^–1
G2,3 (Kirkwood–Buff integral, water–RST) ([1]; x1 = 0.90): –668.0 cm^3·mol^–1
Vcor (correlation volume) ([1]; x1 = 0.90): 6246 cm^3·mol^–1
100 δx1,3 (preferential solvation parameter of RST by PEG400) ([1]; x1 = 0.95): 0.25
D (derivative of the Gibbs energy of transfer) ([1]; x1 = 0.95): –2.08 kJ·mol^–1
G1,3 (Kirkwood–Buff integral, PEG400–RST) ([1]; x1 = 0.95): –315.3 cm^3·mol^–1
G2,3 (Kirkwood–Buff integral, water–RST) ([1]; x1 = 0.95): –633.9 cm^3·mol^–1
Vcor (correlation volume) ([1]; x1 = 0.95): 6447 cm^3·mol^–1
100 δx1,3 (preferential solvation parameter of RST by PEG400) ([1]; x1 = 1.00): 0.00
D (derivative of the Gibbs energy of transfer) ([1]; x1 = 1.00): –1.93 kJ·mol^–1
G1,3 (Kirkwood–Buff integral, PEG400–RST) ([1]; x1 = 1.00): –313.7 cm^3·mol^–1
G2,3 (Kirkwood–Buff integral, water–RST) ([1]; x1 = 1.00): –590.9 cm^3·mol^–1
Vcor (correlation volume) ([1]; x1 = 1.00): 6645 cm^3·mol^–1
SMILES: CC(C)c1nc(N(C)S(C)(=O)=O)nc(-c2ccc(F)cc2)c1/C=C/[C@@H](O)C[C@@H](O)CC(=O)[O-].CC(C)c1nc(N(C)S(C)(=O)=O)nc(-c2ccc(F)cc2)c1/C=C/[C@@H](O)C[C@@H](O)CC(=O)[O-].[Ca+2] [RST, (E)-7-[4-(4-fluorophenyl)-6-isopropyl-2-[methyl(methylsulfonyl)amino]pyrimidin-5-yl]-(3R,5S)-3,5-dihydroxyhept-6-enoic acid, calcium salt (2:1)]
pKa ([2]; GastroPlus input parameter (Table 5)): 4
hydrogen-bonding acceptor counts ([2]; GastroPlus input parameter): 10
hydrogen-bonding donor counts ([2]; GastroPlus input parameter): 3
maximum solubility in PEG400 ([2]; PEG400): 65.7 mg/g
aqueous solubility ([2]; as reported in NLM PubChem): 8.86 × 10^–2 g/L
solubility (mg/mL) in water at 25 (°C) ([2]; water, 25 °C, GastroPlus input parameter): 0.33 mg/mL
elimination half-life ([3]; GastroPlus input parameter): 19 h
total clearance ([3]; GastroPlus input parameter): 0.455 L/h
volume of distribution ([3]; GastroPlus input parameter): 2.23 L/kg
oral bioavailability ([3]; reported): ~20%
